The source of these data is publication PMC9374667 (Communications Biology, 2022).

Several values for one entry are separate records, joined by “and”; a condition that tells them apart may be missing. Equal values may be shown once.

Holding throughout (assay type): cell-based, Murine
One experiment has as its system 3T3-L1 adipocytes. As to the kind of experiment: Immunofluorescence staining of UCP1 and MitoTracker. Also on record: key: mean fluorescence intensity measured in ImageJ. As to conditions: Figure 7d; 10uM BBR; replicates. As to the method:
The 3T3-L1 adipocytes were washed with PBS for 3 times, fixed with 4% paraformaldehyde solution for 30 min, and then washed again for 3 times. […] The cells were then incubated overnight at 4 °C with the appropriate primary antibodies (1:100 dilution). The next day, the 3T3-L1 adipocytes were washed and incubated at room temperature with goat anti-rabbit secondary antibody or goat anti-mouse secondary antibody (1:1000 dilution) for 2 h and washed with PBS for 3 times. The nuclei were stained with DAPI. […] Fluorescence images were taken using a laser confocal microscope (SP8, Leica, Germany). At least four images per section were acquired for quantification, and the mean intensity were evaluated using ImageJ.

Experiment [1] concerns the target T1, TBK1 (Mus musculus, UniProt Q9WUN2).
T1 sequence (Q9WUN2 1-729): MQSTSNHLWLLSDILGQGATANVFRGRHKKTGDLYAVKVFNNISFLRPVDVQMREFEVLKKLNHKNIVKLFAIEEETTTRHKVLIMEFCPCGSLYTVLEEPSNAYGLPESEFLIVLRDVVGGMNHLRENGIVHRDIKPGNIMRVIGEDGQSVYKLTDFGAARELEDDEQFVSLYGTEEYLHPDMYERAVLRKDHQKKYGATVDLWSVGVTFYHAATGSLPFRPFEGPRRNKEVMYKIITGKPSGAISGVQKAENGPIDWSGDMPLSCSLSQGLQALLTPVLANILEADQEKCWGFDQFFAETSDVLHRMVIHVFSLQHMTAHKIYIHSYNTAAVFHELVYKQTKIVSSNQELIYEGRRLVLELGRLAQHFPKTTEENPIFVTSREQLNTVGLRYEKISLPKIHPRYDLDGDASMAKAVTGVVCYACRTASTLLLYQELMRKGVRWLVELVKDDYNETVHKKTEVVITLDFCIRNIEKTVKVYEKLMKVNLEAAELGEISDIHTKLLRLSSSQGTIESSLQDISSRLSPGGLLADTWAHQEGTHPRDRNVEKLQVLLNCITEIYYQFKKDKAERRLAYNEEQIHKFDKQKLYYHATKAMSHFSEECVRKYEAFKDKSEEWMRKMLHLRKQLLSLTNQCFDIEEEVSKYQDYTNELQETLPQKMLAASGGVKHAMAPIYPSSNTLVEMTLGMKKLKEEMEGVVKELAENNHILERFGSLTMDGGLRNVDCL
In words: TBK1 kinase activity in TNF-α induced 3T3-L1 adipocytes. Also on record: host or cells: differentiated 3T3-L1 adipocytes (Lipofectamine 2000); TBK1 kinase activity: unit not given here. The following applies: for TBK1 kinase activity: Figure 7g, replicates.

In experiment [2] the target is T1, TBK1. In words: TBK1-knockdown 3T3-L1 adipocytes (siRNA; western blotting, immunofluorescence). Further details: host or cells: differentiated 3T3-L1 adipocytes (Lipofectamine 2000); TBK1 (western blotting, Figure 9b) / p-AMPK (western blotting, Figure 9c) / UCP1 (western blotting, Figure 9d): unit not given here. As to conditions: for MitoTracker (immunofluorescence, Figure 9f) / UCP1 (immunofluorescence, Figure 9g): replicates 1-12. As to the method: Small interference RNA transfection (siRNA) was performed using 4 μM TBK1 siRNA (siTBK1) or 4 μM […]ε) or corresponding NC siRNA (siNC). The 3T3-L1 adipocytes were washed with PBS for 3 times, fixed with 4% paraformaldehyde solution for 30 min, and then washed again for 3 times. […] The cells were then incubated overnight at 4 °C with the appropriate primary antibodies (1:100 dilution). The next day, the 3T3-L1 adipocytes were washed and incubated at room temperature with goat anti-rabbit secondary antibody or goat anti-mouse secondary antibody (1:1000 dilution) for 2 h and washed with PBS for 3 times. The nuclei were stained with DAPI. […] Fluorescence images were taken using a laser confocal microscope (SP8, Leica, Germany). At least four images per section were acquired for quantification, and the mean intensity were evaluated using ImageJ. The adipose tissue or 3T3-L1 adipocytes were homogenized by ultrasound in an ice-cold RIPA lysis buffer containing 1% PMSF and centrifuged at 12,000 × g at 4°C for 15 min to collect the supernatant. The BCA protein assay kit (Beyotime, Shanghai, China) was used to detect the total protein concentration. Proteins (20-30 μg) of the sample were separated by 10% SDS-PAGE gel and transferred onto polyvinylidene difluoride (PVDF) membranes. Then the PVDF membranes were blocked in 5% skim milk powder in TBS containing 1% Tween-20 (TBST) for 2 h at room temperature and washed with TBST for 3 times. […] After washing, the membranes were incubated with horseradish peroxidase-conjugated secondary antibodies (in 5% skim milk powder) for 1 h at room temperature. Finally, the membranes were treated with enhanced chemiluminescence agents (Tanon, Shanghai, China) and the signals were monitored using the Tanon 5200 multi chemiluminescent imaging system (Tanon, Shanghai, China).
For orientation: A western blot detects proteins with antibodies after separation by electrophoresis.

Take `COc1ccc2cc3[n+](cc2c1OC)CCc1cc2c(cc1-3)OCO2` [BBR, Berberine chloride dihydrate]: in the experiment with 3T3-L1 adipocytes, the MitoTracker was 25.545 and 18.064 and 22.543 and 21.627 and 16.023 and 19.205 and 20.957 and 15.64 and 24.469 and 20.477 and 21.808 and 21.524; the UCP1 was 28.534 and 25.717 and 23.768 and 26.01 and 16.988 and 23.573 and 17.055 and 20.669 and 24.128 and 20.8 and 21.801 and 21.746.

With `CC(C)Cc1ccc(C(C)C(=O)[O-])cc1.COc1ccc2cc3[n+](cc2c1OC)CCc1cc2c(cc1-3)OCO2.O.O.O.O` [BJ, berberine-ibuprofen], the TBK1 kinase activity at TBK1 [1] (TNF-α(50ng/ml)+3μM BJ) was 30.9473 and 32.9827 and 24.4703 and 29.2741 and 25.0999 and 33.9831. The TBK1 kinase activity at TBK1 [1] (TNF-α(50ng/ml)+10μM BJ) is 22.2193 and 16.8634 and 20.5634 and 20.4771 and 22.3055 and 16.9152. Besides, the “TBK1 expression level / kinase activity” value at TBK1 [1] (TNF-α induced 3T3-L1 adipocytes, BJ treatment for 24 h) is listed as “markedly decreased”. Besides, on TBK1 [2] (10μM BJ), the “TBK1 (western blotting, Figure 9b)” value is 0.1548 and 0.1822 and 0.1679; the “UCP1 (western blotting, Figure 9d)” value was 0.6444 and 0.6902 and 0.5582; the “p-AMPK (western blotting, Figure 9c)” value was 0.3674 and 0.4043 and 0.3553; the “MitoTracker (immunofluorescence, Figure 9f)” value is 22.957 and 24.343 and 25.025 and 18.793 and 24.708 and 21.147 and 28.941 and 23.595 and 21.858 and 24.262 and 23.917 and 27.936. The “UCP1 (immunofluorescence, Figure 9g)” value on TBK1 [2] (10μM BJ) is 28.366 and 25.764 and 25.784 and 25.906 and 27.454 and 28.774 and 34.011 and 26.939 and 25.523 and 31.625 and 28.718 and 27.261. Further, the “Expression of p-AMPKα and UCP1” value on TBK1 [2] (3T3-L1 adipocytes, BJ alone, 24 h) is “significantly increased the expression of p-AMPKα and UCP1”. The “Expression levels of p-AMPKα and UCP1” value on TBK1 [2] (TBK1-knockdown 3T3-L1 adipocytes treated with BJ, vs TBK1-knockdown) is on record as “not significantly changed”. Besides, at TBK1 [2] (siTBK1+10μM BJ), the “TBK1 (western blotting, Figure 9b)” value was 0.1211 and 0.0965 and 0.1123; the “UCP1 (western blotting, Figure 9d)” value is 0.7411 and 0.669 and 0.5981; the “p-AMPK (western blotting, Figure 9c)” value was 0.4095 and 0.4234 and 0.498; the “MitoTracker (immunofluorescence, Figure 9f)” value is 25.218 and 30.785 and 30.877 and 30.71 and 22.848 and 22.479 and 31.768 and 31.566 and 27.335 and 20.91 and 29.763 and 33.52. The “UCP1 (immunofluorescence, Figure 9g)” value on TBK1 [2] (siTBK1+10μM BJ) was 30.066 and 28.142 and 35.211 and 34.925 and 27.446 and 30.425 and 28.118 and 35.655 and 39.617 and 27.871 and 25.612 and 40.285.
